Results on seven compounds are retold here after patent publication US20110060017A1, “NOVEL 1,2,3-TRIAZOLE DERIVATIVES USEFUL AS MODULATORS OF NICOTINIC ACETYLCHOLINE RECEPTORS” (Neurosearch A/S, priority 2008, published 2011).

Series [1] has as its target T1, wild-type nAChR α7 receptors (Homo sapiens, UniProt P36544).
T1 construct: expressed in transfected cells; host or cells: Xenopus laevis oocytes
Put plainly: Positive modulation of acetylcholine-induced nAChR α7 currents in Xenopus laevis oocytes (two-electrode voltage clamp). Type of series: cell-based. As for the experimental part: In this example the positive modulation of wild-type nAChR α7 receptors by Compound 4 (i.e. 4-[5-Amino-4-(2,4-dichloro-phenyl)-[1,2,3]triazol-1-ylmethyl]phenol; FIGS. 1A and 1B) was determined using nAChR α7 receptors heterologously expressed in Xenopus laevis oocytes.
The electrical current through the nAChR α7 channel was measured using conventional two-electrode voltage clamp and nAChR α7 currents were activated by applying pulses of agonist-containing solution onto the nAChR α7 expressing oocyte.
In brief, the oocytes were placed in a recording chambers and continuously super-fused with an Oocyte Ringer (OR) solution containing 90 mM NaCl, 2.5 mM KCl, 2.5 mM CaCl2, 1 mM MgCl2 and 5 mM HEPES (pH adjusted to 7.4). The oocytes were clamped at −60 mV and currents were induced by applying 20 s pulses of 100 μM acetylcholine dissolved in OR. The intervals between the acetylcholine applications were 5 minutes, during which the oocytes were washed with OR. The first three applications were control applications to insure a constant response level of 100 μM acetylcholine.
The positive modulation in the presence of Compound 4 was calculated as (test-control)/control*100% and the concentration response curve for this positive modulation was fitted to the sigmoidal logistic equation: I=Imax/(1+(EC50/[compound])^n), where Imax represents the maximal modulation of the control response, EC50 is the concentration causing a half maximal response, and n is the slope coefficient.
In general terms: In two-electrode clamp one electrode senses voltage and the other passes current.

The structures appear in SMILES notation.

T1 sequence (P36544 23-502): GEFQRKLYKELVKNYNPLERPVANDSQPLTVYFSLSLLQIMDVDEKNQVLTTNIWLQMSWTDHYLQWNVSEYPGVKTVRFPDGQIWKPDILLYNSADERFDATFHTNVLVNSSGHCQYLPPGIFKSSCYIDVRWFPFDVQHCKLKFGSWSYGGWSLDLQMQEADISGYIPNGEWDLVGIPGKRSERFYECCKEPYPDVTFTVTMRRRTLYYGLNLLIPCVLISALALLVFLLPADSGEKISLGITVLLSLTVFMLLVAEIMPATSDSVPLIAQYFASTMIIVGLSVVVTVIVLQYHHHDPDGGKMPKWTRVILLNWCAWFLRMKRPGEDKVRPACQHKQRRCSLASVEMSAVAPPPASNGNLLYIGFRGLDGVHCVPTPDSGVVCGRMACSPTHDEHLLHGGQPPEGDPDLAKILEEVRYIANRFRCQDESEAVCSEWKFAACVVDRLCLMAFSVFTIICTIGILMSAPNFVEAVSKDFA

`COc1ccc(Cn2nnc(-c3ccc(Cl)cc3Cl)c2N)cc1` [Compound 1, 5-(2,4-Dichloro-phenyl)-3-(4-methoxy-benzyl)-3H-[1,2,3]triazol-4-ylamine] returned a melting point of 134.4 to 136.8 °C. Same read-out and setting: under `COc1ccc(-c2nnn(Cc3ccc(Cl)cc3Cl)c2N)cc1` [Compound 2, 3-(2,4-Dichloro-benzyl)-5-(4-methoxy-phenyl)-3H-[1,2,3]-triazol-4-ylamine] stands 156.5 to 159 °C. In turn, `Nc1c(-c2ccc(Cl)cc2Cl)nnn1Cc1ccc(O)cc1` [Compound 4, 4-[5-Amino-4-(2,4-dichloro-phenyl)-[1,2,3]triazol-1-ylmethyl]-phenol] registered a melting point of 172.5 to 174.1 °C. The “Imax, maximal modulation of the acetylcholine response” value in series [1] (100 μM acetylcholine, (test-control)/control*100%, Xenopus laevis oocytes, 0.01-31.6 μM compound) is reported as 277%. For the same compound, the half-maximal effective concentration (EC50) in series [1] (100 μM acetylcholine, nAChR α7 expressed in Xenopus laevis oocytes, clamped at −60 mV, 0.01-31.6 μM compound, read-out: EC50 for positive modulation of acetylcholine responses) was determined as 1.1 µM. In addition, the “effect on acetylcholine-induced current amplitude” value in series [1] (0.01-31.6 μM compound applied 30 s before and during 100 μM acetylcholine) is “robust increase”.

`Nc1c(-c2ccc(C(F)(F)F)cc2F)nnn1Cc1ccc(S(N)(=O)=O)cc1` [Compound 5, 4-[5-Amino-4-(2-fluoro-4-trifluoromethyl-phenyl)-[1,2,3]-triazol-1-ylmethyl]-benzenesulfonamide]: the melting point was 180.1 to 181.3 °C.

As to `Nc1c(-c2ccc(Cl)cc2Cl)nnn1Cc1ccc(S(N)(=O)=O)cc1` [Compound 6, 4-[5-Amino-4-(2,4-dichloro-phenyl)-[1,2,3]-triazol-1-ylmethyl]-benzenesulfonamide], the melting point was 204 to 205.6 °C.

For `COc1ccc(Cn2nnc(-c3ccc(C(F)(F)F)cc3F)c2N)cc1` [Compound 7, 5-(2-Fluoro-4-trifluoromethyl-phenyl)-3-(4-methoxy-benzyl)-3H-[1,2,3]-triazol-4-ylamine], the melting point lay in the range of 153.2 to 154.4 °C. On the same count and under the same terms, under `Nc1c(-c2ccc(C(F)(F)F)cc2F)nnn1Cc1ccc(O)cc1` [Compound 8, 4-[5-Amino-4-(2-fluoro-4-trifluoromethyl-phenyl)-[1,2,3]-triazol-1-ylmethyl]-phenol] stands 168.2 to 169.5 °C.

One may read the melting point as the temperature, or range, at which the solid turns liquid. One may read the EC50 as the concentration that produces a half-maximal response.
